Measurements from ChEMBL document CHEMBL3352681, “A cyclic GB virus C derived peptide with anti-HIV-1 activity targets the fusion peptide of HIV-1” (Eur J Med Chem, 2014).
The source made the active and inactive calls. No cut-off for these calls is given here. Peptide text beside a SMILES is read from it.

Assays:
[1] = tested on: Human immunodeficiency virus 1; test: Binding affinity to biotin-labeled HIV1 fusion protein using 5 uM compound immobilized on microtiter plates by ELISA method
[2] = tested on: Human immunodeficiency virus 1; test: Binding affinity to HIV1 fusion protein in PLGA nanoparticles assessed as protein-protein interactions by STD-NMR spectroscopy
[3] = tested on: Human immunodeficiency virus 1; test: Inhibition of fusogenic capacity of HIV1 fusion protein in rabbit RBCs assessed as reduction in fusion protein-induced hemolsysis at 10 to 1000 uM after 60 mins
[4] = tested on: Human immunodeficiency virus 1; test: Inhibition of fusogenic capacity of HIV1 fusion protein in POPG LUVs assessed as reduction in fusion protein-induced vesicular permeabilization process at compound/fusion protein ratio of 20 by ANTS/DPX assay
[5] = tested on: Human immunodeficiency virus 1; test: Binding affinity to HIV1 fusion protein in POPG vesicles assessed as induction of conformational changes infusion secondary structure by CD spectroscopy
[6] = tested on: Human immunodeficiency virus 1; test: Binding affinity to [W8]HIV1 fusion protein assessed as mole fraction partition coefficients in POPG liposomes by fluorescence assay; conditions: Microsome
[7] = tested on: Human immunodeficiency virus 1; test: Binding affinity to HIV1 fusion protein in DPPG lipid monolayers assessed as reduction in fusion protein-induced lipid layer phase transition at 5% by fluorescence microscopy
[8] = target: T1, Melittin (Apis mellifera) (UniProt P01501); test: Binding affinity to bee venom melittin in POPG LUVs assessed as reduction in melittin-induced vesicular permeabilization process at compound/melittin ratio of 10 by ANTS/DPX assay
T1 sequence (whole entry): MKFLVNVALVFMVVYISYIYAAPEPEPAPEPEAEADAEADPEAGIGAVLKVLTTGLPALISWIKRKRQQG

[9] = tested on: Murine leukemia virus; test: Binding affinity to NBD-labeled MLV fusion protein in POPG LUVs at 0.0125 to 0.4 uM using Rho-labeled compound by FRET assay
[10] = tested on: Human immunodeficiency virus 1; test: Inhibition of fusogenic capacity of HIV1 fusion protein in rabbit RBCs assessed as reduction in fusion protein-induced hemolsysis at 1 to 100 uM after 60 mins
[11] = tested on: Human immunodeficiency virus 1; test: Binding affinity to biotin-labeled HIV1 fusion protein using compound immobilized on microtiter plates by ELISA method
[12] = tested on: Human immunodeficiency virus 1; test: Binding affinity to NBD-labeled HIV1 fusion protein in POPG LUVs at 0.0125 to 0.4 uM using Rho-labeled compound by FRET assay
[13] = tested on: Human immunodeficiency virus 1; test: Binding affinity to HIV1 fusion protein in DPPG lipid monolayers at 5% by compression isotherms analysis
[14] = tested on: Human immunodeficiency virus 1; test: Antiviral activity against HIV1 NL4-3 in cell based assay; format: functional, organism-based; conditions: Human immunodeficiency virus 1, NL4-3
[15] = Toxicity against rabbit RBCs assessed as induction of hemolysis after 60 mins; format: cell-based, Oryctolagus cuniculus; conditions: erythrocyte, 1 h
[16] = tested on: Human immunodeficiency virus 1; test: Inhibition of biotin-labeled HIV1 fusion protein binding to immobilized E1P8cyc peptide by ELISA method
[17] = tested on: Human immunodeficiency virus 1; test: Antiviral activity against HIV1 NL4-3 infected in TZM-bl cells assessed as inhibition of viral replication; format: functional, organism-based
[18] = tested on: HeLa; test: Inhibition of HIV1 fusion protein assessed as inhibition of syncytium formation between HeLa cells expressing HIV-1 envelope protein and TZM-bl cells expressing human CD4 receptor; format: cell-based; conditions: Human immunodeficiency virus 1
[19] = tested on: HeLa; test: Inhibition of HIV1 fusion protein assessed as inhibition of syncytium formation between HeLa cells expressing HIV-1 envelope protein and TZM-bl cells expressing human CCR5 receptor; format: cell-based; conditions: Human immunodeficiency virus 1
[20] = tested on: HeLa; test: Inhibition of HIV1 fusion protein assessed as inhibition of syncytium formation between HeLa cells expressing HIV-1 envelope protein and TZM-bl cells expressing human CXCR4 receptor; format: cell-based; conditions: Human immunodeficiency virus 1

| Compound | Activity [1] | Activity [2] | inhibition [3] | inhibition [4] | Activity [5] | K (mole fraction) [6] | Activity [7] | inhibition [10] | Activity [12] | Activity [13] | Activity [15] | Activity [16] | Activity [17] | inhibition [18] | inhibition [19] | inhibition [20] | other results |
| --- | --- | --- | --- | --- | --- | --- | --- | --- | --- | --- | --- | --- | --- | --- | --- | --- | --- |
| CC[C@H](C)[C@H](NC(=O)[C@H](CC(=O)O)NC(=O)[C@H](CCC(=O)O)NC(=O)[C@@H]1CCCN1C(=O)[C@H](C)N)C(=O)NCC(=O)N[C@@H](Cc1ccccc1)C(=O)N[C@@H](CS)C(=O)N[C@@H](CC(C)C)C(=O)N[C@@H](CCC(=O)O)C(=O)NCC(=O)NCC(=O)N[C@@H](CS)C(=O)N[C@@H](CC(C)C)C(=O)N[C@H](C(=O)N[C@@H](C)C(=O)N[C@@H](CC(C)C)C(=O)NCC(=O)O)C(C)C (H-APEDIGFCLEGGCLVALG-OH) | inactive | inactive | Active | Active | Active | 730000 |  |  |  |  |  |  |  |  |  |  |  |
| CC[C@H](C)[C@H](NC(=O)[C@H](CC(=O)O)NC(=O)[C@H](CCC(=O)O)NC(=O)[C@@H]1CCCN1C(=O)[C@H](C)N)C(=O)NCC(=O)N[C@@H](Cc1ccccc1)C(=O)N[C@H]1CSSC[C@@H](C(=O)N[C@@H](CC(C)C)C(=O)N[C@H](C(=O)N[C@@H](C)C(=O)N[C@@H](CC(C)C)C(=O)NCC(=O)O)C(C)C)NC(=O)CNC(=O)CNC(=O)[C@H](CCC(=O)O)NC(=O)[C@H](CC(C)C)NC1=O (HELM PEPTIDE1{A.P.E.D.I.G.F.C.L.E.G.G.C.L.V.A.L.G}$PEPTIDE1,PEPTIDE1,8:R3-13:R3$$$V2.0) | Active | Active |  |  | Active | 580000 | Active | Dose-dependent effect | Active | Active | Non-toxic | Active |  |  |  |  | Activity [8]: inactive; Activity [9]: inactive; Activity [11]: Dose-dependent effect; Imax [4]: 40%; IC50 [14]: 7.8 µM |
| H-LEAIPCSIPPEFLFGKPFVF-OH | Active | inactive |  |  | Active |  | Active | Active | Active | Active | Non-toxic |  | Active | Active | Active | Active |  |
| H-SGVLTVGVALTRRVYPVP-OH | inactive |  | inactive | inactive | inactive |  |  |  |  |  |  | inactive | inactive | inactive | inactive | inactive |  |
